Laboratory results taken from PubChem BioAssay (NCI).
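How tested: cells in 96-well plates exposed to compound for 48 hours at five concentrations. Here, GI50 denotes the concentration required for 50% inhibition of growth. TGI: concentration producing complete growth inhibition.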

Key:
Test in all cases: DTP human tumour cell line panel, 48 h
SNB-19 CNS = tested on: SNB-19 CNS
SR leukemia = tested on: SR leukemia
RXF 393 renal = tested on: RXF 393 renal
OVCAR-5 ovarian = tested on: OVCAR-5 ovarian
T-47D breast = tested on: T-47D breast
UACC-257 melanoma = tested on: UACC-257 melanoma
MALME-3M melanoma = tested on: MALME-3M melanoma
SK-MEL-2 melanoma = tested on: SK-MEL-2 melanoma
A549 NSCLC = tested on: A549 NSCLC
HOP-92 NSCLC = tested on: HOP-92 NSCLC
SNB-75 CNS = tested on: SNB-75 CNS
ACHN renal = tested on: ACHN renal
MDA-N = tested on: MDA-N
SK-MEL-5 melanoma = tested on: SK-MEL-5 melanoma
SF-268 CNS = tested on: SF-268 CNS
MDA-MB-231 breast = tested on: MDA-MB-231 breast
COLO 205 colon = tested on: COLO 205 colon
K-562 leukemia = tested on: K-562 leukemia
KM12 colon = tested on: KM12 colon
SK-OV-3 ovarian = tested on: SK-OV-3 ovarian
SN12C renal = tested on: SN12C renal
HCC-2998 colon = tested on: HCC-2998 colon
HCT-116 colon = tested on: HCT-116 colon
HT29 colon = tested on: HT29 colon
HOP-62 NSCLC = tested on: HOP-62 NSCLC
OVCAR-8 ovarian = tested on: OVCAR-8 ovarian
786-0 renal = tested on: 786-0 renal
MCF7 breast = tested on: MCF7 breast
HS 578T breast = tested on: HS 578T breast
SF-295 CNS = tested on: SF-295 CNS
UO-31 renal = tested on: UO-31 renal
IGROV1 ovarian = tested on: IGROV1 ovarian
LOX IMVI melanoma = tested on: LOX IMVI melanoma
M14 melanoma = tested on: M14 melanoma
TK-10 renal = tested on: TK-10 renal
SF-539 CNS = tested on: SF-539 CNS
SK-MEL-28 melanoma = tested on: SK-MEL-28 melanoma
CCRF-CEM leukemia = tested on: CCRF-CEM leukemia
U251 CNS = tested on: U251 CNS
UACC-62 melanoma = tested on: UACC-62 melanoma
EKVX NSCLC = tested on: EKVX NSCLC
PC-3 prostate = tested on: PC-3 prostate
NCI/ADR-RES ovarian = tested on: NCI/ADR-RES ovarian
HCT-15 colon = tested on: HCT-15 colon
BT-549 breast = tested on: BT-549 breast
OVCAR-4 ovarian = tested on: OVCAR-4 ovarian
NCI-H460 lung = tested on: NCI-H460 lung
SW-620 colon = tested on: SW-620 colon
A498 renal = tested on: A498 renal
NCI-H23 lung = tested on: NCI-H23 lung
DU-145 prostate = tested on: DU-145 prostate
RPMI-8226 leukemia = tested on: RPMI-8226 leukemia
MDA-MB-435 = tested on: MDA-MB-435
HL-60(TB) leukemia = tested on: HL-60(TB) leukemia
NCI-H522 lung = tested on: NCI-H522 lung
MOLT-4 leukemia = tested on: MOLT-4 leukemia
OVCAR-3 ovarian = tested on: OVCAR-3 ovarian
NCI-H226 lung = tested on: NCI-H226 lung
CAKI-1 renal = tested on: CAKI-1 renal

C[Si](C)(C)OC1(C#N)c2ccccc2CCCC12CCCC2 (stereo not drawn)
TGI (SNB-19 CNS): > 100 µM | TGI (SR leukemia): > 100 µM | TGI (RXF 393 renal): 88.1 µM | TGI (OVCAR-5 ovarian): > 100 µM | TGI (T-47D breast): 85.5 µM | TGI (UACC-257 melanoma): 58.3 µM | TGI (MALME-3M melanoma): > 100 µM | TGI (SK-MEL-2 melanoma): 45.7 µM | TGI (A549 NSCLC): > 100 µM | TGI (HOP-92 NSCLC): 89.9 µM | TGI (SNB-75 CNS): > 100 µM | TGI (ACHN renal): > 100 µM | TGI (MDA-N): > 100 µM | TGI (SK-MEL-5 melanoma): 56.2 µM | TGI (SF-268 CNS): > 100 µM | TGI (MDA-MB-231 breast): > 100 µM | TGI (COLO 205 colon): > 100 µM | TGI (K-562 leukemia): > 100 µM | TGI (KM12 colon): > 100 µM | TGI (SK-OV-3 ovarian): > 100 µM | TGI (SN12C renal): > 100 µM | TGI (HCC-2998 colon): 44 µM | TGI (HCT-116 colon): > 100 µM | TGI (HT29 colon): > 100 µM | TGI (HOP-62 NSCLC): > 100 µM | TGI (OVCAR-8 ovarian): > 100 µM | TGI (786-0 renal): > 100 µM | TGI (MCF7 breast): > 100 µM | TGI (HS 578T breast): > 100 µM | TGI (SF-295 CNS): > 100 µM | TGI (UO-31 renal): > 100 µM | TGI (IGROV1 ovarian): > 100 µM | TGI (LOX IMVI melanoma): 49.6 µM | TGI (M14 melanoma): > 100 µM | TGI (TK-10 renal): > 100 µM | TGI (SF-539 CNS): > 100 µM | TGI (SK-MEL-28 melanoma): > 100 µM | TGI (CCRF-CEM leukemia): 46 µM | TGI (U251 CNS): 92.2 µM | TGI (UACC-62 melanoma): > 100 µM | TGI (EKVX NSCLC): > 100 µM | TGI (PC-3 prostate): > 100 µM | TGI (NCI/ADR-RES ovarian): > 100 µM | TGI (HCT-15 colon): > 100 µM | TGI (BT-549 breast): > 100 µM | TGI (OVCAR-4 ovarian): > 100 µM | TGI (NCI-H460 lung): > 100 µM | TGI (SW-620 colon): > 100 µM | TGI (A498 renal): > 100 µM | TGI (NCI-H23 lung): > 100 µM | TGI (DU-145 prostate): > 100 µM | TGI (RPMI-8226 leukemia): 51.5 µM | TGI (MDA-MB-435): > 100 µM | TGI (HL-60(TB) leukemia): 39.2 µM | TGI (NCI-H522 lung): 77.7 µM | TGI (MOLT-4 leukemia): 61.7 µM | TGI (OVCAR-3 ovarian): > 100 µM | TGI (NCI-H226 lung): > 100 µM | TGI (CAKI-1 renal): > 100 µM

O=C1C=CC2C3C(=O)N(c4ccccc4)C(=O)C3C1N2Cc1ccccc1 (stereo not drawn)
GI50 (SNB-19 CNS): 6.04 µM | TGI (SNB-19 CNS): 13.2 µM | GI50 (SR leukemia): 1.87 µM | TGI (SR leukemia): 7 µM | GI50 (RXF 393 renal): 2.42 µM | TGI (RXF 393 renal): 6.53 µM | GI50 (OVCAR-5 ovarian): 6.74 µM | TGI (OVCAR-5 ovarian): 19.3 µM | GI50 (T-47D breast): 4.93 µM | TGI (T-47D breast): 18.2 µM | GI50 (UACC-257 melanoma): 3.22 µM | TGI (UACC-257 melanoma): 8.67 µM | GI50 (MALME-3M melanoma): 4.62 µM | TGI (MALME-3M melanoma): 9.43 µM | GI50 (SK-MEL-2 melanoma): 4.37 µM | TGI (SK-MEL-2 melanoma): 9.29 µM | GI50 (A549 NSCLC): 14.9 µM | TGI (A549 NSCLC): 29.7 µM | GI50 (HOP-92 NSCLC): 3.66 µM | TGI (HOP-92 NSCLC): 9.75 µM | GI50 (SNB-75 CNS): 4.19 µM | TGI (SNB-75 CNS): 15.7 µM | GI50 (ACHN renal): 3.36 µM | TGI (ACHN renal): 7.61 µM | GI50 (MDA-N): 3.14 µM | TGI (MDA-N): 10.9 µM | GI50 (SK-MEL-5 melanoma): 3.57 µM | TGI (SK-MEL-5 melanoma): 6.88 µM | GI50 (SF-268 CNS): 3.34 µM | TGI (SF-268 CNS): 8.85 µM | GI50 (MDA-MB-231 breast): 5.44 µM | TGI (MDA-MB-231 breast): 20.1 µM | TGI (COLO 205 colon): 5.37 µM | GI50 (K-562 leukemia): 1.67 µM | TGI (K-562 leukemia): 6.55 µM | GI50 (KM12 colon): 2.56 µM | TGI (KM12 colon): 7.43 µM | GI50 (SK-OV-3 ovarian): 13.2 µM | TGI (SK-OV-3 ovarian): 26.1 µM | GI50 (SN12C renal): 1.64 µM | TGI (SN12C renal): 3.43 µM | GI50 (HCC-2998 colon): 7.95 µM | TGI (HCC-2998 colon): 18.7 µM | GI50 (HCT-116 colon): 1.56 µM | TGI (HCT-116 colon): 3.27 µM | GI50 (HT29 colon): 2.07 µM | TGI (HT29 colon): 4.47 µM | TGI (HOP-62 NSCLC): 5.26 µM | GI50 (OVCAR-8 ovarian): 2.88 µM | TGI (OVCAR-8 ovarian): 10.1 µM | GI50 (786-0 renal): 1.69 µM | TGI (786-0 renal): 3.62 µM | GI50 (MCF7 breast): 3.19 µM | TGI (MCF7 breast): 11.5 µM | TGI (HS 578T breast): 13.9 µM | GI50 (SF-295 CNS): 6.41 µM | TGI (SF-295 CNS): 15.4 µM | GI50 (UO-31 renal): 3.42 µM | TGI (UO-31 renal): 6.79 µM | GI50 (IGROV1 ovarian): 4.81 µM | TGI (IGROV1 ovarian): 12.3 µM | GI50 (LOX IMVI melanoma): 1.61 µM | TGI (LOX IMVI melanoma): 3.13 µM | GI50 (M14 melanoma): 2.6 µM | TGI (M14 melanoma): 7.12 µM | GI50 (TK-10 renal): 8.08 µM | TGI (TK-10 renal): 18.8 µM | GI50 (SF-539 CNS): 1.66 µM | TGI (SF-539 CNS): 3.81 µM | GI50 (SK-MEL-28 melanoma): 3.02 µM | TGI (SK-MEL-28 melanoma): 11.3 µM | GI50 (CCRF-CEM leukemia): 0.942 µM | TGI (CCRF-CEM leukemia): 4.12 µM | GI50 (U251 CNS): 2.29 µM | TGI (U251 CNS): 11.8 µM | GI50 (UACC-62 melanoma): 2.01 µM | TGI (UACC-62 melanoma): 6.19 µM | GI50 (EKVX NSCLC): 7.78 µM | TGI (EKVX NSCLC): 23.6 µM | GI50 (PC-3 prostate): 4.67 µM | TGI (PC-3 prostate): 13 µM | GI50 (NCI/ADR-RES ovarian): 2.55 µM | TGI (NCI/ADR-RES ovarian): 8.75 µM | GI50 (HCT-15 colon): 1.74 µM | TGI (HCT-15 colon): 3.89 µM | GI50 (BT-549 breast): 3.45 µM | TGI (BT-549 breast): 8.87 µM | GI50 (OVCAR-4 ovarian): 5.54 µM | TGI (OVCAR-4 ovarian): 17.7 µM | GI50 (NCI-H460 lung): 3.49 µM | TGI (NCI-H460 lung): 9.01 µM | GI50 (SW-620 colon): 1.93 µM | TGI (SW-620 colon): 4.32 µM | GI50 (A498 renal): 8.57 µM | TGI (A498 renal): 22.8 µM | GI50 (NCI-H23 lung): 5.37 µM | TGI (NCI-H23 lung): > 48.3 µM | GI50 (DU-145 prostate): 9.65 µM | TGI (DU-145 prostate): 22.4 µM | GI50 (RPMI-8226 leukemia): 1.59 µM | TGI (RPMI-8226 leukemia): 5.18 µM | GI50 (MDA-MB-435): 2.72 µM | TGI (MDA-MB-435): 8.05 µM | GI50 (HL-60(TB) leukemia): 1.17 µM | TGI (HL-60(TB) leukemia): 8.79 µM | GI50 (NCI-H522 lung): 2.68 µM | TGI (NCI-H522 lung): 7.64 µM | GI50 (MOLT-4 leukemia): 1.72 µM | TGI (MOLT-4 leukemia): 5.42 µM | GI50 (OVCAR-3 ovarian): 3.45 µM | TGI (OVCAR-3 ovarian): 11.3 µM | TGI (NCI-H226 lung): 13.8 µM | GI50 (CAKI-1 renal): 4.1 µM | TGI (CAKI-1 renal): 8.15 µM
